# According to patent US20230085307A1, “PYRIDAZINONE COMPOUND AND HERBICIDE” (NISSAN CHEMICAL CORPORATION, priority 2019, published 2023):
# Legend:
# [1] = system: velvetleaf; assay: Test Example 5: herbicidal effect by foliage application, plastic box (Table 20, symbol M); assay type: in vivo, velvetleaf (Abutilon theophrasti); conditions: foliage application, three weeks after application; for M: velvetleaf, herbicidal effect grade: 320 g/ha
# Summary of the method: (§1)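 Post-emergence foliar test in sterilized diluvial soil. Compound applied as water-diluted emulsion at a predetermined rate to 14-day-old plants; evaluation at three weeks.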
# [2] = system: oval-leafed pondweed; assay: Test Example 1: herbicidal activity, application before weed generation under submerged conditions (Table 16, symbol C); assay type: in vivo, oval-leafed pondweed (Monochoria vaginalis); conditions: for Herbicidal effect, C: oval-leafed pondweed: amount of applied herbicide 320 g/ha
# Summary of the method: (§2)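 Emulsion formulation, water-diluted to set dose, was put onto the flooded surface (4 cm depth, alluvial soil) the same day weeds were sown and 2.5-leaf rice transplanted. After 3 weeks at 25-30 °C under glass, each species was rated 0 (≤5% kill) to 5 (≥90% kill).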
# [3] = system: southern crabgrass; assay: Test Example 5: herbicidal effect by foliage application, plastic box (Table 20, symbol F); assay type: in vivo, southern crabgrass (Digitaria ciliaris); conditions: foliage application, three weeks after application; for F: southern crabgrass, herbicidal effect grade: 320 g/ha
# Summary of the method: as §1
# [4] = system: wild oat; assay: Test Example 5: herbicidal effect by foliage application, plastic box (Table 20, symbol I); assay type: in vivo, wild oat (Avena fatua); conditions: foliage application, three weeks after application; for I: wild oat, herbicidal effect grade: 320 g/ha
# Summary of the method: as §1
# [5] = system: redroot pigweed; assay: Test Example 5: herbicidal effect by foliage application, plastic box (Table 20, symbol N); assay type: in vivo, redroot pigweed (Amaranthus retroflexus); conditions: foliage application, three weeks after application; for N: redroot pigweed, herbicidal effect grade: 320 g/ha
# Summary of the method: as §1
# [6] = system: green foxtail; assay: Test Example 5: herbicidal effect by foliage application, plastic box (Table 20, symbol G); assay type: in vivo, green foxtail (Setaria viridis); conditions: foliage application, three weeks after application; for G: green foxtail, herbicidal effect grade: 320 g/ha
# Summary of the method: as §1
# [7] = system: chickweed; assay: Test Example 5: herbicidal effect by foliage application, plastic box (Table 20, symbol P); assay type: in vivo, common chickweed (Stellaria media); conditions: foliage application, three weeks after application; for P: chickweed, herbicidal effect grade: 320 g/ha
# Summary of the method: as §1
# [8] = system: barnyard grass; assay: Test Example 3: herbicidal effect by foliage application, Wagner pot (Table 18, symbol H); assay type: in vivo, barnyard grass (Echinochloa crus-galli); conditions: for herbicidal effect on H: barnyard grass: amount of applied herbicide 320 g/ha
# Summary of the method: (§3)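 Plants were sown in alluvial soil held under 0.1–0.5 cm standing water and grown 14 days in a greenhouse at 25–30 °C. An emulsifiable formulation, water-diluted to the set dose, was then sprayed onto the foliage, and effects were scored three weeks later using previously defined criteria.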
# [9] = system: persian speedwell; assay: Test Example 5: herbicidal effect by foliage application, plastic box (Table 20, symbol R); assay type: in vivo, Persian speedwell (Veronica persica); conditions: foliage application, three weeks after application; for R: persian speedwell, herbicidal effect grade: 320 g/ha
# Summary of the method: as §1
# [10] = system: barnyard grass; assay: Test Example 5: herbicidal effect by foliage application, plastic box (Table 20, symbol H); assay type: in vivo, barnyard grass (Echinochloa crus-galli); conditions: foliage application, three weeks after application; for H: barnyard grass, herbicidal effect grade: 320 g/ha
# Summary of the method: as §1
# [11] = system: Japanese bulrush; assay: Test Example 2: herbicidal activity, application during weed generation under submerged conditions (Table 17, symbol B); assay type: in vivo, Japanese bulrush (Schoenoplectus juncoides); conditions: AAH 320 g/ha; application during weed generation, submerged conditions
# Summary of the method: (§4)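 Wagner pot, alluvial soil, 4 cm flood; mixed sowing of all species; greenhouse 25° C.–30° C. Emulsifiable formulation, water-diluted to predetermined dose, applied to paddy water at 1–2 leaf stage. Effect rated at 3 wk using the earlier test's scoring criteria.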
# [12] = system: oval-leafed pondweed; assay: Test Example 2: herbicidal activity, application during weed generation under submerged conditions (Table 17, symbol C); assay type: in vivo, oval-leafed pondweed (Monochoria vaginalis); conditions: AAH 320 g/ha; application during weed generation, submerged conditions
# Summary of the method: as §4
# [13] = system: lambsquarters; assay: Test Example 5: herbicidal effect by foliage application, plastic box (Table 20, symbol O); assay type: in vivo, lambsquarters (Chenopodium album); conditions: foliage application, three weeks after application; for O: lambsquarters, herbicidal effect grade: 320 g/ha
# Summary of the method: as §1
# [14] = system: late watergrass; assay: Test Example 1: herbicidal activity, application before weed generation under submerged conditions (Table 16, symbol A); assay type: in vivo, late watergrass (Echinochloa oryzicola); conditions: for Herbicidal effect, A: late watergrass: amount of applied herbicide 320 g/ha
# Summary of the method: as §2
# [15] = system: Japanese bulrush; assay: Test Example 1: herbicidal activity, application before weed generation under submerged conditions (Table 16, symbol B); assay type: in vivo, Japanese bulrush (Schoenoplectus juncoides); conditions: for Herbicidal effect, B: Japanese bulrush: amount of applied herbicide 320 g/ha
# Summary of the method: as §2
# [16] = system: late watergrass; assay: Test Example 2: herbicidal activity, application during weed generation under submerged conditions (Table 17, symbol A); assay type: in vivo, late watergrass (Echinochloa oryzicola); conditions: AAH 320 g/ha; application during weed generation, submerged conditions
# Summary of the method: as §4
# [17] = system: windgrass; assay: Test Example 5: herbicidal effect by foliage application, plastic box (Table 20, symbol L); assay type: in vivo, windgrass (Apera spica-venti); conditions: foliage application, three weeks after application; for L: windgrass, herbicidal effect grade: 320 g/ha
# Summary of the method: as §1
# [18] = system: Italian ryegrass; assay: Test Example 5: herbicidal effect by foliage application, plastic box (Table 20, symbol K); assay type: in vivo, Italian ryegrass (Lolium multiflorum); conditions: foliage application, three weeks after application; for K: Italian ryegrass, herbicidal effect grade: 320 g/ha
# Summary of the method: as §1
# [19] = system: rice flat sedge; assay: Test Example 3: herbicidal effect by foliage application, Wagner pot (Table 18, symbol E); assay type: in vivo, rice flat sedge (Cyperus iria); conditions: for herbicidal effect on E: rice flat sedge: amount of applied herbicide 320 g/ha
# Summary of the method: as §3
# [20] = system: blackgrass; assay: Test Example 5: herbicidal effect by foliage application, plastic box (Table 20, symbol J); assay type: in vivo, blackgrass (Alopecurus myosuroides); conditions: foliage application, three weeks after application; for J: blackgrass, herbicidal effect grade: 320 g/ha
# Summary of the method: as §1
# [21] = system: Chinese sprangletop; assay: Test Example 3: herbicidal effect by foliage application, Wagner pot (Table 18, symbol D); assay type: in vivo, chinese sprangletop (Leptochloa chinensis); conditions: for herbicidal effect on D: Chinese sprangletop: amount of applied herbicide 320 g/ha
# Summary of the method: as §3
SMILES,"herbicidal effect rating, B: Japanese bulrush [11]","herbicidal effect rating, C: oval-leafed pondweed [12]","herbicidal effect rating, A: late watergrass [16]","M: velvetleaf, herbicidal effect grade [1]","Herbicidal effect, C: oval-leafed pondweed [2]","F: southern crabgrass, herbicidal effect grade [3]","I: wild oat, herbicidal effect grade [4]","N: redroot pigweed, herbicidal effect grade [5]","G: green foxtail, herbicidal effect grade [6]","P: chickweed, herbicidal effect grade [7]",herbicidal effect on H: barnyard grass [8],"R: persian speedwell, herbicidal effect grade [9]","H: barnyard grass, herbicidal effect grade [10]","O: lambsquarters, herbicidal effect grade [13]","Herbicidal effect, A: late watergrass [14]","Herbicidal effect, B: Japanese bulrush [15]","L: windgrass, herbicidal effect grade [17]","K: Italian ryegrass, herbicidal effect grade [18]",herbicidal effect on E: rice flat sedge [19],"J: blackgrass, herbicidal effect grade [20]",other results
CCCC(=O)Oc1c(C)nn(C)c(=O)c1-c1c(-c2ccc([Si](C)(C)C)cc2)sc2ccccc12 [1-154],2 (Herbicidal rate of 20% or more and less than 40%),0 (Herbicidal rate of 5% or less (almost no effect)),0 (Herbicidal rate of 5% or less (almost no effect)),–,–,–,–,–,–,–,–,–,–,–,–,–,–,–,–,–,"M: velvetleaf, herbicidal effect ([1]; AAH 320 g/ha): 0 (Herbicidal rate of 5% or less (almost no effect)); Herbicidal effect on C: oval-leafed pondweed (grade 0-5) ([2]; 320 g/ha applied herbicide): 0 (Herbicidal rate of 5% or less (almost no effect)); F: southern crabgrass, herbicidal effect ([3]; AAH 320 g/ha): 0 (Herbicidal rate of 5% or less (almost no effect)); I: wild oat, herbicidal effect ([4]; AAH 320 g/ha): 0 (Herbicidal rate of 5% or less (almost no effect)); N: redroot pigweed, herbicidal effect ([5]; AAH 320 g/ha): 3 (Herbicidal rate of 40% or more and less than 70%); G: green foxtail, herbicidal effect ([6]; AAH 320 g/ha): 0 (Herbicidal rate of 5% or less (almost no effect)); P: chickweed, herbicidal effect ([7]; AAH 320 g/ha): 0 (Herbicidal rate of 5% or less (almost no effect)); herbicidal effect on H (barnyard grass), rating 0-5 ([8]; 320 g/ha): 2 (Herbicidal rate of 20% or more and less than 40%); R: persian speedwell, herbicidal effect ([9]; AAH 320 g/ha): 4 (Herbicidal rate of 70% or more and less than 90%); H: barnyard grass, herbicidal effect ([10]; AAH 320 g/ha): 0 (Herbicidal rate of 5% or less (almost no effect)); O: lambsquarters, herbicidal effect ([13]; AAH 320 g/ha): 4 (Herbicidal rate of 70% or more and less than 90%); Herbicidal effect on A: late watergrass (grade 0-5) ([14]; 320 g/ha applied herbicide): 2 (Herbicidal rate of 20% or more and less than 40%); Herbicidal effect on B: Japanese bulrush (grade 0-5) ([15]; 320 g/ha applied herbicide): 0 (Herbicidal rate of 5% or less (almost no effect)); L: windgrass, herbicidal effect ([17]; AAH 320 g/ha): 0 (Herbicidal rate of 5% or less (almost no effect)); K: Italian ryegrass, herbicidal effect ([18]; AAH 320 g/ha): 0 (Herbicidal rate of 5% or less (almost no effect)); herbicidal effect on E (rice flat sedge), rating 0-5 ([19]; 320 g/ha): 2 (Herbicidal rate of 20% or more and less than 40%); J: blackgrass, herbicidal effect ([20]; AAH 320 g/ha): 0 (Herbicidal rate of 5% or less (almost no effect)); herbicidal effect on D (Chinese sprangletop), rating 0-5 ([21]; 320 g/ha): 3 (Herbicidal rate of 40% or more and less than 70%)"
CCCC(=O)Oc1c(CC)nn(C)c(=O)c1-c1c(-c2ccc(Cl)cc2)sc2ccc(F)cc12 [2-409],3 (Herbicidal rate of 40% or more and less than 70%),3 (Herbicidal rate of 40% or more and less than 70%),2 (Herbicidal rate of 20% or more and less than 40%),5 (Herbicidal rate of 90% or more (almost completely withered)),2 (Herbicidal rate of 20% or more and less than 40%),3 (Herbicidal rate of 40% or more and less than 70%),0 (Herbicidal rate of 5% or less (almost no effect)),5 (Herbicidal rate of 90% or more (almost completely withered)),4 (Herbicidal rate of 70% or more and less than 90%),4 (Herbicidal rate of 70% or more and less than 90%),5 (Herbicidal rate of 90% or more (almost completely withered)),4 (Herbicidal rate of 70% or more and less than 90%),3 (Herbicidal rate of 40% or more and less than 70%),4 (Herbicidal rate of 70% or more and less than 90%),3 (Herbicidal rate of 40% or more and less than 70%),3 (Herbicidal rate of 40% or more and less than 70%),0 (Herbicidal rate of 5% or less (almost no effect)),1 (Herbicidal rate of 5% or more and less than 20%),5 (Herbicidal rate of 90% or more (almost completely withered)),0 (Herbicidal rate of 5% or less (almost no effect)),herbicidal effect on D: Chinese sprangletop [21]: 4 (Herbicidal rate of 70% or more and less than 90%)
CCCC(=O)Oc1c(CC)nn(C)c(=O)c1-c1c(-c2ccc(OC(F)(F)F)cc2)sc2ccc(F)cc12 [2-413],1 (Herbicidal rate of 5% or more and less than 20%),0 (Herbicidal rate of 5% or less (almost no effect)),3 (Herbicidal rate of 40% or more and less than 70%),4 (Herbicidal rate of 70% or more and less than 90%),0 (Herbicidal rate of 5% or less (almost no effect)),0 (Herbicidal rate of 5% or less (almost no effect)),0 (Herbicidal rate of 5% or less (almost no effect)),4 (Herbicidal rate of 70% or more and less than 90%),3 (Herbicidal rate of 40% or more and less than 70%),5 (Herbicidal rate of 90% or more (almost completely withered)),5 (Herbicidal rate of 90% or more (almost completely withered)),5 (Herbicidal rate of 90% or more (almost completely withered)),1 (Herbicidal rate of 5% or more and less than 20%),4 (Herbicidal rate of 70% or more and less than 90%),3 (Herbicidal rate of 40% or more and less than 70%),0 (Herbicidal rate of 5% or less (almost no effect)),0 (Herbicidal rate of 5% or less (almost no effect)),2 (Herbicidal rate of 20% or more and less than 40%),4 (Herbicidal rate of 70% or more and less than 90%),0 (Herbicidal rate of 5% or less (almost no effect)),herbicidal effect on D: Chinese sprangletop [21]: 4 (Herbicidal rate of 70% or more and less than 90%)
